Peptide text beside a SMILES is read from it.
Tests used:
Assay type in all cases: cell-based, human
[1] = test system: OG33 oligodendroglioma stem cells; experiment: Cell cycle profile by propidium iodide staining and flow cytometry; settings: 100 μM NAA or 10 μM NAAG
Description: (§1) Cell cycle profiles were visualized by propidium iodide (PI) staining as previously described (Perez-Martinez & Jaworski (2005) J Neurosci 25:4917-29). OG35, OG33 and mouse neural stem cells were grown in stem cell medium (SCM; DMEM/F12, B27, 20 ng/ml ea bFGF & EGF) while the oligodendrocyte progenitor cell line, Oli-neu (Jung et al. (1995) Eur J Neurosci 7:1245-65) was grown in Sato's medium (DMEM supplemented with 100 μg/ml apotransferrin, 5 μg/ml insulin, 60 nM triiodothyronine, 30 nM sodium selenite, 100 μM putrescine, 1% horse serum, and 25 μg/ml G418). […] after 0.25% (v/v) GTA treatment, cells were trypsinized, recovered by centrifugation, re-suspended (10^6 cells/ml) in a low-salt PI solution ([…] polyethylene glycol PEG 8000, […], 180 U/ml RNase A, 0.1% Triton X-100, and 4 mM sodium citrate), and incubated at 37° C. for 20 minutes. After addition of an equal volume of high-salt PI solution ([…] polyethylene glycol PEG 8000, […], 180 U/ml RNase A, 0.1% Triton X-100, and 400 mM NaCl) and incubation at 4° C. for 1 hour, cell cycle profiles were recorded by flow cytometry (BD LSR 11 Flow Cytometer, BD Biosciences; Franklin Lakes, N.J.).

[2] = test system: OG33 oligodendroglioma stem cells; experiment: Growth dynamics, trypan blue exclusion and manual counting; settings: 100 μM NAA or 10 μM NAAG; SCM and DM; later time points up to 5 days
Description: (§2) Stem cell spheres from two oligodendroglioma stem cell lines (OG33 and OG35) were plated (at 10,000 cells per well of a 24-well plate) in the absence or presence of 100 μM N-acetylaspartate (NAA) or 10 μM N-acetylaspartylglutamate (NAAG) in stem cell medium (SCM) containing DMEM/F12 (Gibco/Life Technologies, Grand Island, N.Y.), B27 supplement (Gibco/Life Technologies, Grand Island, N.Y.), and 20 ng/ml each basic fibroblast growth factor (bFGF) and epidermal growth factor (EGF), or differentiation medium (DM) containing DMEM, 10% FBS. Medium, with fresh drug, was replenished every 48 hours. Growth dynamics were assessed using trypan blue exclusion and manual counting 1, 3, and 5 days after plating.

[3] = test system: OG35 oligodendroglioma stem cells; experiment: as above; settings: 100 μM NAA or 10 μM NAAG; stem cell medium (SCM) and differentiation medium (DM); later time points up to 5 days
Description: as §2

ASPA in OG33 cells [4] = experiment: Western blot of ASPA expression; settings: NAA and NAAG treatment (not shown)
Description: SDS-PAGE (25 μg protein from whole cell lysates) and western blotting were performed as previously described (Lluri et al. 2008 Exp Cell Res 314:11-24). Cytosol and nuclear fractions were isolated according to standard protocols. Antibodies: rabbit anti-mouse ASPA (2,000×), (Madhavarao et al. 2004 Comp Neurol 472:318-29) rabbit anti-human ASPA (5,000×; GTX1338; GeneTex, Irvine, Calif.), goat anti-human actin (1,000×, sc-1616, Santa Cruz Biotechnology, Santa Cruz, Calif.), rabbit anti-human GAPDH (5,000×, sc-25778, Santa Cruz Biotechnology, Santa Cruz, Calif.), mouse anti-human histone H1 (250×, sc-8030; Santa Cruz Biotechnology, Santa Cruz, Calif.). Species-specific HRP—(3,000×) conjugated secondary antibodies were obtained from Jackson ImmunoResearch (West Grove, Pa.). Immunocomplexes were visualized by enhanced chemiluminescence (PerkinElmer Life Sciences; Boston, Mass.) and densitometry performed using Quantity One software (Bio-Rad; Hercules, Calif.).
SDS-PAGE (25 μg protein from whole cell lysates) and western blotting were performed as previously described in Example 1.

ASPA in OG33 cells [5] = experiment: Immunocytochemistry of ASPA localization after NAA or NAAG; settings: 100 μM NAA or 10 μM NAAG; 5 days in DM; OG33 (cytosolic)
Description: (§3) Immunocytochemistry was performed as described (Perez-Martinez & Jaworski (2005) J Neurosci 25:4917-29). Briefly, OG33 and OG35 cells were plated into differentiaion medium (DMEM, 10% FBS), fixed with 2% paraformaldehyde, and ASPA expression localized immunocytochemically using rabbit anti-mouse ASPA (1,500×) (Madhavarao et al., 2004 Comp Neurol 472:318-29) and Cy-3 conjugated secondary antibody (500×; Jackson ImmunoResearch, West Grove, Pa.).

ASPA in OG35 cells = experiment: as above; settings: 100 μM NAA or 10 μM NAAG; 5 days in DM; OG35 (primarily nuclear)
Description: as §3

[6] = test system: OG35 oligodendroglioma stem cells; experiment: Cell cycle profile by propidium iodide staining and flow cytometry; settings: 100 μM NAA or 10 μM NAAG
Description: as §1

Structure (SMILES) | OG33 cell number by flow cytometric cell cycle analysis [1] | OG33 cell growth (cell number, manual counting) [2] | OG35 cell growth (cell number, manual counting) [3] | Expression of novel 26 kDa ASPA species (ASPA in OG33 cells [4]) | ASPA spatial localization (ASPA in OG33 cells [5]) | ASPA spatial localization (ASPA in OG35 cells) | OG35 growth by flow cytometric cell cycle analysis (cells in G2/M and G0/G1) [6]
CC(=O)N[C@@H](CC(=O)O)C(=O)O [NAA, N-acetylaspartate] | no significant change | only increased in SCM | increased in SCM and DM | induced | little effect | little effect | –
CC(=O)N[C@@H](CC(=O)O)C(=O)N[C@@H](CCC(=O)O)C(=O)O [NAAG, N-acetylaspartylglutamate] (Ac-Asp-Glu-OH) | no significant change | only increased in SCM | increased in SCM and DM | induced | little effect | little effect | promoted OG35 growth
